From patent US20060003974A1, “Bile acid derived steroidal dimers with amphiphilic topology having antiproliferative activity” (COUNCIL OF SCIENTIFIC AND INDUSTRIAL RESEARCH, priority 2004, published 2006) come the findings set out here.

For data set [1], the system named is human mammary adenocarcinoma (MCF-7). Kind of data set: MTT cell proliferation assay, MCF-7 cells. It counts as cell-based. The conditions noted are these: for IC50: Homo sapiens, MCF7, 72 h treatment, MTT, read-out: IC50, reduction in proliferation. As for the experimental part: (§1) Antiproliferative Activity, Materials and methods: Human oral squamous carcinoma HEp-2 and human mammary adenocarcinoma (MCF-7) cell lines were obtained from National Centre for Cell Science, Pune, India. Cells were maintained as a monolayer in nutrient media MEM supplemented with heat inactivated fetal bovine serum (HyClone, Utah, USA) (10%), penicillin (100 U/ml) and streptomycin (100 μg/ml) (Invitrogen Life Technologies, MD, USA). The cells were grown at 37° C. in 5% CO2 and humidified air atmosphere. Stock solutions of all the compounds were prepared in DMSO at a concentration of 10-11.5 mM and afterwards diluted to the required concentration. The 3-(4,5-dimethylthiazol-2-yl)-2,5-diphenyltetrazolium bromide (MTT) was dissolved (1 mg/ml) in MEM (without phenol red) and filtered through a Millipore filter, 0.22 μm, before use. MTT Cell Proliferation Assay: (HEp-2) and (MCF-7) cells were plated at a density of 15,000 cells per well in 96 well tissue culture plates. Cells were allowed to adhere for 24 h at 37° C. and then treated with various concentrations (0, 0.1, 1.0, and 10 μM) of compounds dissolved in DMSO for additional 72 h, in triplicates. In the control wells nutrient medium with correspondent concentration of DMSO only was added to the cells. Thereafter cell proliferation was assessed by replacing treatment medium with 50 μL media containing 1 mg/mL MTT and incubated for 4 h at 37° C. Medium was then aspirated off and formazan crystals were solubilized in […] of isopropanol. The optical density was read on a microplate reader at 570 nm using 630 nm as a reference filter against a blank prepared from cell free wells. Absorbance given by cells treated with the carrier DMSO alone was taken as 100% cell growth. All assays were performed in triplicates. Antiproliferative Activity. The antiproliferative activity of both the compounds 2 and 3 were tested against human cancer cells, HEp-2 and MCF-7 which were grown in vitro. Compound (2) up to a concentration of 10 μM had no effect on the survival of HEp-2 and MCF-7 cells. […] IC50 value for compound (2) was between 2-3 μM.
On the technique in general: Formazan colour is commonly taken as a measure of viable cells.

For data set [2], the system named is Human oral squamous carcinoma HEp-2. Kind of data set: MTT cell proliferation assay, HEp-2 cells. It counts as cell-based. The conditions noted are these: for IC50: Homo sapiens, 72 h treatment, MTT, read-out: IC50, reduction in proliferation. The method, then: as §1

The term melting point denotes the temperature of the solid-liquid transition. `C[C@H](CCC(=O)NCCNC(=O)CC[C@@H](C)[C@H]1CCC2C3C(C[C@H](O)[C@@]21C)[C@@]1(C)CC[C@@H](O)CC1C[C@H]3O)[C@H]1CCC2C3C(C[C@H](O)[C@@]21C)[C@@]1(C)CC[C@@H](O)CC1C[C@H]3O` (stereo partly drawn) [Compound 2, N^1,N^2-Ethylenediamine bis [cholic acid amide]]: the melting point was 205 °C. Besides, the IC50 in data set [1] was in the range of 2000 to 3000 nM. Besides, the “effect on survival of cells” value in data set [1] (up to a concentration of 10 μM) is given as “no effect”. The IC50 in data set [2] was 2000 to 3000 nM. Moreover, the “effect on survival of cells” value in data set [2] (up to a concentration of 10 μM) is on record as “no effect”.

In turn, `C[C@H](CCC(=O)NCCNC(=O)CC[C@@H](C)[C@H]1CCC2C3CCC4C[C@H](O)CC[C@]4(C)C3C[C@H](O)[C@@]21C)[C@H]1CCC2C3CCC4C[C@H](O)CC[C@]4(C)C3C[C@H](O)[C@@]21C` (stereo partly drawn) [Compound 3, N^1,N^2-Ethylenediamine bis [deoxycholic acid amide]] displayed a melting point of 170 °C. For the same compound, the reduction in proliferation entry in data set [1] (0.1-10 μM, 72 h) was “significant reduction”. Moreover, the IC50 in data set [1] fell in the range of 2000 to 4000 nM. Besides, the “growth inhibition at 10 μM” value in data set [1] (at 10 μM concentration, 72 h) is “totally inhibited”. Also, in data set [2] (0.1-10 μM, 72 h), the reduction in proliferation result is “significant reduction”. Besides, the IC50 in data set [2] lay within 2000 to 4000 nM. In data set [2] (at 10 μM concentration, 72 h), the “growth inhibition at 10 μM” value was “totally inhibited”.
